This note sets out measurements from BindingDB's records for doi:10.1016/j.ejmech.2021.113764 (China Pharmaceutical University, 2021).

The IC50 is the concentration at which inhibition is half-maximal.

A short description of one assay: Antagonist activity at PAR4 in ICR mouse platelet-rich plasma assessed as inhibition of PAR4 AP AYPGKF-NH2-induced platelet aggregation by photo-turbidimetry assay.
For the compound `COCc1cc2ccc(OC)c(-c3nn4cc(C)nc4s3)c2o1`, the IC50 was determined as 10 µM.

Take `CSc1nn2cc(-c3cc4ccccc4o3)nc2s1` [US9862730, Example 1]: the IC50 came out at 0.94 µM.

Regarding `Cc1cc(-c2ccccc2)c2ncn(C)c(=O)c2c1`, the IC50 is more than 10 µM.

On to `COCc1cc2cc(C)cc(-c3nn4ccnc4s3)c2o1`, for which the IC50 worked out at 3.44 µM.

Turning to `COCc1cc2cc(C)cc(-c3nn4cc(C)nc4s3)c2o1`, the IC50 is 4.82 µM.

Consider `CCn1cnc2c(-c3nc4c(Cl)cc(OC)cc4s3)cc(C)cc2c1=O`, for which the IC50 was found to be 1.85 µM.

Regarding `Cc1cc(-c2nc3c(Cl)cc(OCCNS(=O)(=O)c4ccc(Cl)cc4Cl)cc3s2)c2ncn(C)c(=O)c2c1`, the IC50 was 0.95 µM.

For the compound `CCn1cnc2c(-c3nc4c(s3)CCCC4)cc(C)cc2c1=O`, the IC50 was 3.74 µM.

`COc1ccccc1-c1cc(C)cc2c(=O)n(C)cnc12`: the 50% inhibitory concentration (IC50) turned out to be 7.32 µM.

Take `Cc1cc(-c2ccccc2F)c2ncn(C)c(=O)c2c1`: the IC50 is 5.48 µM.

For the compound `Cc1cc(-c2nn3ccnc3s2)c2ccn(C)c(=O)c2c1`, the IC50 was 3 µM.

As for `Cc1cc(-c2cccc(Cl)c2Cl)c2ncn(C)c(=O)c2c1`, the 50% inhibitory concentration (IC50) came to 3.7 µM.

As to `COc1cc(Cl)c2nc(-c3cc(C)cc4c(=O)n(C)c(C(C)C)nc34)sc2c1`, the IC50 is more than 10 µM.

For the compound `Cc1cc(-c2nc3c(Cl)cc(Cl)cc3s2)c2ncn(C)c(=O)c2c1`, the IC50 was 2.62 µM.

On to `Cc1cc(-c2nc3c(Cl)cc(OCCNC(=O)c4ccccc4)cc3s2)c2ncn(C)c(=O)c2c1`, for which the IC50 is more than 10 µM.

Consider `Cc1cn2nc(-c3cccc4ccoc34)sc2n1`, for which the IC50 came to 7.61 µM.

As for `Cc1ccc(-c2cc(C)cc3c(=O)n(C)cnc23)cc1`, the IC50 is more than 10 µM.

Take `COc1cc(F)c2nc(-c3cccc4c(=O)n(C)cnc34)sc2c1`: the IC50 is 5.34 µM.

Take `Cc1cc(-c2ccc(F)cc2O)c2ncn(C)c(=O)c2c1`: the IC50 was more than 10 µM.

`COc1cc(Cl)c2nc(-c3cc(C)cc4c(=O)n(C(C)C)cnc34)sc2c1`: the IC50 is 9.77 µM.

Take `Cc1cc(-c2ccc(Cl)cc2Cl)c2ncn(C)c(=O)c2c1`: the IC50 is 1.22 µM.

In the case of `COc1cc(F)c2nc(-c3cc(C)cc4c(=O)n(C)cnc34)sc2c1`, the IC50 turned out to be 0.83 µM.

As to `CCCCc1cc(-c2nc3c(Cl)cc(OC)cc3s2)c2ncn(C)c(=O)c2c1`, the IC50 came out at 1.38 µM.

For the compound `COc1cc(F)c2nc(-c3cc(C)cc4c(=O)n(C(C)C)cnc34)sc2c1`, the IC50 is 6.74 µM.

As for `Cc1cc(-c2cc3ccccc3o2)c2ncn(C)c(=O)c2c1`, the IC50 was 4.26 µM.

Turning to `Cc1cc(-c2ccccc2C#N)c2ncn(C)c(=O)c2c1`, the IC50 is more than 10 µM.

On to `Cc1cc(-c2nc3c(s2)CCCC3)c2ncn(C)c(=O)c2c1`, for which the IC50 was 0.11 µM.

Consider `COCc1nc2cc(C)cc(-c3nc4c(Cl)cc(OC)cc4s3)c2[nH]1`, for which the IC50 amounted to 1.63 µM.

For the compound `Cn1cnc2c(-c3nc4c(s3)CCCC4)cccc2c1=O`, the IC50 came to 2.61 µM.

Turning to `Cc1cc(-c2cccc3ccccc23)c2ncn(C)c(=O)c2c1`, the IC50 was more than 10 µM.

Regarding `CCCCc1cc(-c2nc3c(s2)CCCC3)c2ncn(CC)c(=O)c2c1`, the IC50 is 6.28 µM.

In the case of `Cc1cc(-c2nc3c(Cl)cc(OCCNS(=O)(=O)c4ccc(C(F)(F)F)cc4)cc3s2)c2ncn(C)c(=O)c2c1`, the IC50 stood at 0.17 µM.

Regarding `Cc1cc(-c2nc3c(Cl)cc4c(c3s2)OCCO4)c2ncn(C)c(=O)c2c1`, the IC50 came out at 5.57 µM.

As to `Cc1cc(-c2nn3cc(C)nc3s2)c2ccn(C)c(=O)c2c1`, the IC50 turned out to be 3.21 µM.

For the compound `CCn1cnc2c(-c3nc4c(F)cc(OC)cc4s3)cc(C)cc2c1=O`, the IC50 is 9.95 µM.

For the compound `Cc1cc(-c2nc3c(Cl)cc(OCCNS(=O)(=O)c4ccc(-c5ccccc5)cc4)cc3s2)c2ncn(C)c(=O)c2c1`, the IC50 is more than 10 µM.

For the compound `COCn1cnc2c(-c3nc4c(s3)CCCC4)cc(C)cc2c1=O`, the concentration for half-maximal inhibition (IC50) was found to be 2.32 µM.

In the case of `CCCCc1cc(-c2nc3c(s2)CCCC3)c2ncn(C)c(=O)c2c1`, the IC50 was found to be 7.04 µM.

Regarding `Cc1cc(-c2nc3c(Cl)cc(OCCNS(C)(=O)=O)cc3s2)c2ncn(C)c(=O)c2c1`, the IC50 was more than 10 µM.

On to `Cc1cc(-c2nc3c(Cl)cc(OCCNS(=O)(=O)c4ccc(F)cc4)cc3s2)c2ncn(C)c(=O)c2c1`, for which the IC50 was found to be 8.22 µM.

For `COCc1cc2ccc(OC)c(-c3nn4ccnc4s3)c2o1`, the IC50 came out at 10 µM.

On to `Cc1nn2cc(-c3cc4ccccc4o3)nc2s1` [US9862730, Example 41], for which the IC50 was 1.82 µM.

Take `COc1cc(Cl)c2nc(-c3cccc4c(=O)n(C)cnc34)sc2c1`: the IC50 came out at 6.78 µM.

`CCc1cc(-c2nc3c(Cl)cc(OC)cc3s2)c2ncn(C)c(=O)c2c1`: the IC50 came out at 0.16 µM.

On to `Cc1cc(-c2nc3c(Cl)cc(OCCN)cc3s2)c2ncn(C)c(=O)c2c1`, for which the IC50 was 3.02 µM.

For the compound `Cc1cc(-c2ccc3ccccc3n2)c2ncn(C)c(=O)c2c1`, the IC50 is more than 10 µM.

Turning to `Cc1cc(-c2nc3c(s2)CCCC3)c2nc(C)n(C)c(=O)c2c1`, the IC50 stood at 8.21 µM.

Take `Cc1cc(-c2ccccc2C)c2ncn(C)c(=O)c2c1`: the IC50 was more than 10 µM.

For the compound `COc1cc(Cl)c2nc(-c3cc(C)cc4c(=O)n(C)ccc34)sc2c1`, the IC50 stood at 0.98 µM.

As for `Cc1cc(-c2nc3c(Cl)cc(OCCNC(=O)OC(C)(C)C)cc3s2)c2ncn(C)c(=O)c2c1`, the half-maximal inhibitory concentration (IC50) was 2.07 µM.

As for `COc1cc(F)c2nc(-c3cc(C)cc4c(=O)n(C)c(C)nc34)sc2c1`, the IC50 was 5.45 µM.

On to `COc1cc(Cl)c2nc(-c3cc(C)cc4c(=O)n(C)c(C)nc34)sc2c1`, for which the IC50 worked out at 2.09 µM.

On to `COc1cc(Cl)c2nc(-c3cc(C)cc4c3CCN(C)C4=O)sc2c1`, for which the IC50 was 1.84 µM.

For the compound `Cc1cc2c(c(-c3nn4ccnc4s3)c1)CCN(C)C2=O`, the IC50 is more than 10 µM.

`Cc1cc(-c2nccs2)c2ncn(C)c(=O)c2c1`: the IC50 amounted to 3.64 µM.

As for `Cc1cc2c(c(-c3nn4cc(C)nc4s3)c1)CCN(C)C2=O`, the IC50 amounted to 8.7 µM.

For the compound `Cc1cc(-c2nc3c(s2)CCCC3)c2nc[nH]c(=O)c2c1`, the IC50 stood at 1.38 µM.

Consider `Cc1cc(-c2nc3c(Cl)cc(OCCNS(=O)(=O)c4ccccc4)cc3s2)c2ncn(C)c(=O)c2c1`, for which the IC50 is 2.52 µM.

As to `Cc1cc(-c2nc3c(Cl)cc(OCCNS(=O)(=O)c4ccc(Cl)cc4)cc3s2)c2ncn(C)c(=O)c2c1`, the IC50 was 1.04 µM.

In the case of `CCOCn1cnc2c(-c3nc4c(Cl)cc(OC)cc4s3)cc(C)cc2c1=O`, the IC50 was found to be 0.65 µM.

As for `CCOCn1cnc2c(-c3nc4c(s3)CCCC4)cc(C)cc2c1=O`, the IC50 amounted to 4.77 µM.

In the case of `C#CCn1cnc2c(-c3nc4c(F)cc(OC)cc4s3)cc(C)cc2c1=O`, the IC50 was determined as 4.2 µM.

With `COc1cc(Cl)c2nc(-c3cc(C)cc4c(=O)n(Cc5ccccc5)cnc34)sc2c1`, the IC50 is more than 10 µM.

For `CCc1cc(-c2nc3c(s2)CCCC3)c2ncn(C)c(=O)c2c1`, the IC50 turned out to be 3.54 µM.

As for `Cc1ccc(S(=O)(=O)NCCOc2cc(Cl)c3nc(-c4cc(C)cc5c(=O)n(C)cnc45)sc3c2)cc1`, the IC50 came to 0.52 µM.

As for `COCn1cnc2c(-c3nc4c(Cl)cc(OC)cc4s3)cc(C)cc2c1=O`, the IC50 was 1 µM.

Regarding `Cc1cc(-c2cccnc2)c2ncn(C)c(=O)c2c1`, the IC50 is more than 10 µM.

Consider `COCc1cnc2c(-c3nc4c(Cl)cc(OC)cc4s3)cc(C)cc2n1`, for which the IC50 is 0.79 µM.

In the case of `Cc1cc(-c2nc3c(s2)CCCC3)c2ncn(C(C)C)c(=O)c2c1`, the IC50 was more than 10 µM.

On to `COCc1nc2cc(C)cc(-c3nn4cc(C)nc4s3)c2[nH]1`, for which the IC50 is 3.13 µM.

Take `CCc1cc(-c2nc3c(s2)CCCC3)c2ncn(CC)c(=O)c2c1`: the IC50 is more than 10 µM.

Another assay can be described thus: Antagonist activity at PAR4 in human platelet-rich plasma assessed as inhibition of PAR4 AP AYPGKF-NH2-induced platelet aggregation by photo-turbidimetry assay.
Regarding `Cc1cc(-c2ccc(Cl)cc2Cl)c2ncn(C)c(=O)c2c1`, the IC50 is 0.174 µM.

For the compound `COc1cc(F)c2nc(-c3cc(C)cc4c(=O)n(C)cnc34)sc2c1`, the IC50 amounted to 0.078 µM.

Consider `Cc1cc(-c2nc3c(s2)CCCC3)c2ncn(C)c(=O)c2c1`, for which the IC50 came out at 0.029 µM.

`Cc1cc(-c2nc3c(Cl)cc(OCCNS(=O)(=O)c4ccc(C(F)(F)F)cc4)cc3s2)c2ncn(C)c(=O)c2c1`: the IC50 is 0.0066 µM.

As for `COc1cc(Cl)c2nc(-c3cc(C)cc4c(=O)n(C)cnc34)sc2c1`, the IC50 was determined as 0.02 µM.

Regarding `CCc1cc(-c2nc3c(Cl)cc(OC)cc3s2)c2ncn(C)c(=O)c2c1`, the IC50 is 0.04 µM.

With `CCOCn1cnc2c(-c3nc4c(Cl)cc(OC)cc4s3)cc(C)cc2c1=O`, the IC50 is 0.107 µM.
